{"source": "patent US9017936B2", "about": "“Assays for agents affecting megakaryocyte development” (Shire Human Genetic Therapies, Inc., priority 2009, dated 2015)", "key": {"[1]": {"test_system": "megakaryocytic cells from primary hematopoietic progenitor cells", "experiment": "Megakaryocyte growth in expanded CD34+ cells transduced with shControl or shTRB3", "format": "cell-based, human", "settings": "for MK cell number: cultured one week with anagrelide; for Inhibition of megakaryocyte growth: vs DMSO", "excerpt": "UT7/mpl cells (clone 5.1) (Goncalves et al., Leukemia 12:1355-1366 (1998)) or human umbilical cord blood CD34+ hematopoietic cells were infected with pLKO.1-puro lentiviral vectors carrying short hairpin (sh) RNA sequences against human TRB-3 (designated shTRB3.1 to shTRB3.5) or a non-targeting scramble shRNA (designated shControl). shRNA clones were purchased from Sigma.\nExpanded CD34+ cells (see Materials and Methods Section of Example 1) were infected as described above and then were sub-cultured under standard megakaryocyte culture conditions with anagrelide or an equivalent amount of vehicle for 2 days prior to addition of 1 μg/ml puromycin and further differentiation for 5 days.\nCD61 expression of live cells was analysed by flow cytometry following double staining with 7-amino actinomycin D and the FITC-conjugated monoclonal antibody Y2/51 (Dako cytomation) or an isotype-matched control antibody; the latter was used to set a boundary between positive and negative cells.\nTable 1 illustrates the effect of TRB-3 silencing on the ability of anagrelide-to inhibit megakaryocyte growth in cultures of primary hematopoietic progenitor cells. Expanded CD34+ cells were infected overnight with shControl or with a mixture of shTRB3.4 and shTRB3.5. Cells were then cultured for one week in the presence of anagrelide or an equivalent amount of vehicle under standard megakaryocyte culture conditions, except that 1 ug/ml puromycin was added after 2 days. The number of megakaryocytic cells was determined by cell counting of viable cells and flow cytometry."}, "TRB-3 mRNA expression": {"test_system": "TRB-3 mRNA expression", "experiment": "TRB-3 expression assay (quantitative RT-PCR) in megakaryocyte cultures of expanded CD34+ cells", "format": "cell-based, human", "method": "CD34+ cells were thawed, washed by centrifugation (300 g for 10 min at room temperature) in Stemspan™ medium (Stem Cell Technologies, London, UK) and then seeded in 48-well Falcon plates at a density of 1.5×10^5 cells/ml in the above culture medium supplemented with 100 U/ml penincillin, 0.1 mg/ml streptomycin, 0.25 μg/ml amphothericin B, 2% human umbilical cord blood plasma, 40 ng/ml TPO (Insight, UK), 50 ng/ml SCF, 100 ng/ml Flt3 ligand, and 10 ng/ml IL-3 (all from R&D Systems, Abingdon, UK). Cells were grown four days at 37° C. in a humidified incubator under 5% CO2/95% air.\nThe expanded cells were washed free of cytokines by centrifugation as above and re-suspended to 1.5×10^5 cells/ml by addition of fresh Stemspan™ culture medium containing 2% human umbilical cord plasma and 40 ng/ml TPO. Cells were then grown in 48-well Falcon plates at 37° C. in a humidified incubator under 5% CO2/95% air in the presence of either anagrelide, another test agent or an equivalent amount of vehicle (between 0.01% to 0.05% DMSO). At various time points the cells were harvested and processed for RNA extraction or for determination of CD61 antigen expression and total cell counting.\nCellular RNA was extracted with RNeasy reagent (Qiagen) according to the manufacturer's instructions and cDNA was prepared from 0.1-0.5 μg total RNA template using random hexamer primers and a High Capacity Reverse Transcription kit or a High Capacity RNA-to-cDNA Master Mix (Applied Biosystems). cDNA aliquots were either used immediately or stored at −20° C. for PCR analysis at a later stage. cDNA aliquots (equivalent to 5-10 ng of input RNA) were then analysed in duplicates by real-time PCR using gene-specific TaqMan probes on an ABI Prism 7500 Sequence Detection System (Applied Biosystems). Probes for TRB-3 (Hs00221754_m1), GpIIb (Hs00166246_m1), GUSB (Hs99999908_m1) and TBP (Hs99999910_m1) were commercially available from the Assay on Demand gene expression collection (Applied Biosystems). Thermal conditions were the following: 20 seconds at 95° C. followed by 40 cycles of 3 seconds at 94° C. and 30 seconds at 60° C. Reactions without cDNA were included as controls. Relative mRNA expression levels were calculated using the comparative cycle threshold (CT) method (Livak and Schmittgen, 2001) using the CT values obtained for β-glucuronidase (GUSB) or TATA Box binding protein (TBP) as internal references. For each target gene to be quantified, validation experiments were performed to determine that the efficiency of amplification of target and reference gene was approximately equal. When analysing dose responses EC50 values were calculated with Prism software (Version 4, GraphPad Software Inc, CA, USA).\nIn order to ascertain the sensitivity of the described method, dose-response curves were constructed based on the effect of anagrelide on TRB-3 mRNA expression using different numbers of cells. Cells were cultured for 4 days under standard MK culture conditions in the presence of increasing concentrations of anagrelide. RNA was extracted from the cells, and TRB-3 mRNA expression was determined by quantitative RT-PCR using β-glucuronidase as an endogenous reference. Results shown in FIG. 3 were expressed relative to the TRB-3 mRNA level detected in cells treated with vehicle alone. EC50 values were calculated using a sigmoidal dose response (variable slope) curve-fit model. Values in brackets represent the 95% CI. Error bars (SD) smaller than the size of the symbol are not shown.\nExpanded CD34+ cells (see Materials and Methods Section of Example 1) were pre-incubated for various lengths of time under standard megakaryocyte culture conditions in the absence of the test agent and then treated with the test agent or an equivalent amount of vehicle for 24 hours prior to harvesting. TRB-3 mRNA expression was determined as described in the Materials and Methods Section of Example 1."}, "[2]": {"test_system": "phosphodiesterase type III", "settings": "cited from earlier work"}, "[3]": {"settings": "shTRB3 (shTRB3.4 + shTRB3.5)-transduced cells"}}, "data": [{"molecule": "O=C1CN2Cc3c(ccc(Cl)c3Cl)N=C2N1", "note": "[Anagrelide, 6,7-dichloro-1,5-dihydroimidazo (2,1-b)quinazolin-2(3H)-one]", "values": [{"measurement": "MK cell number", "setting": "[1]; shControl-transduced cells", "result": "106 ×10^3"}, {"measurement": "Inhibition of megakaryocyte growth", "setting": "[1]; shControl-transduced cells", "result": 49.3, "unit": "%"}, {"measurement": "MK cell number", "setting": "[1]; [3]", "result": "202 ×10^3"}, {"measurement": "Inhibition of megakaryocyte growth", "setting": "[1]; [3]", "result": 21.5, "unit": "%"}, {"measurement": "TRB-3 mRNA response to 24 h exposure", "setting": "TRB-3 mRNA expression; 1 μM, 24 h exposure following the refractory phase (after initial 2-3 days)", "result": "sharp increase in TRB-3 expression"}, {"measurement": "TRB-3 mRNA response to 24 h exposure", "setting": "TRB-3 mRNA expression; 1 μM, exposure confined to the initial 2-3 days of culture", "result": "relatively weak"}, {"measurement": "TRB-3 expression, 24 h treatment after three days of culture vs continuous four day exposure", "setting": "TRB-3 mRNA expression; 1 μM, last 24 h vs continuous", "result": "higher level of TRB-3 expression than if the drug was present for the entire four day period of culture"}, {"measurement": "extent of TRB-3 expression response (fold increase vs vehicle)", "setting": "TRB-3 mRNA expression; 4 days, RNA extracted from 25,000 cells", "result": 1.8, "unit": "fold"}, {"measurement": "extent of TRB-3 expression response (fold increase vs vehicle)", "setting": "TRB-3 mRNA expression; 4 days, RNA extracted from 200,000 cells", "result": 3, "unit": "fold"}, {"measurement": "EC50", "setting": "TRB-3 mRNA expression; Homo sapiens, 96 h, 4 days, standard MK culture, RNA extracted from 200,000 cells, 95% CI 9 to 27 nM, read-out: EC50 for increase in TRB-3 mRNA expression", "result": 15, "unit": "nM"}, {"measurement": "inhibition of phosphodiesterase type III", "setting": "[2]", "result": "potent inhibitor"}]}, {"molecule": "TPO: thrombopoietin, the primary signal for megakaryocyte production", "values": [{"measurement": "effect on TRB-3 expression", "setting": "TRB-3 mRNA expression", "result": "reduces TRB-3 expression"}]}]}
